Laboratory results taken from article PMC6364417, “Kinase inhibitor library screening identifies synergistic drug combinations effective in sensitive and resistant melanoma cells” (Journal of Experimental & Clinical Cancer Research : CR, 2019).
Each block holds one compound with its values, some of them ahead of it.

Tests used:
[1] = test system: A375-GP cells (Dabrafenib-resistant); test: Dose-response curves and IC50, PrestoBlue cell viability, 72 h; assay type: cell-based, human; conditions: n.e. = did not suppress growth below 50% in the tested concentration range; for IC50: Homo sapiens, read-out: Half-maximal inhibitory concentration value (IC50), Mean
A375 cells (parental) [2] = test: as above; assay type: cell-based, human; conditions: for Half-maximal inhibitory concentration value (IC50), Mean: n.e. = did not suppress growth below 50% in the tested concentration range; for IC50: Homo sapiens, A-375, n.e. = did not suppress growth below 50% in the tested concentration range, read-out: Half-maximal inhibitory concentration value (IC50), Mean
[3] = test system: A375-XP cells (Vemurafenib-resistant); test: as above; assay type: cell-based, human; conditions: n.e. = did not suppress growth below 50% in the tested concentration range; for IC50: Homo sapiens, read-out: Half-maximal inhibitory concentration value (IC50), Mean
[4] = test system: A375-GP cells (Dabrafenib-resistant); test: Kinase inhibitor library screening, PrestoBlue cell viability, 1 or 10 μM, 72 h; conditions: A375 GP, in %
[5] = test system: A375-XP cells (Vemurafenib-resistant); test: as above; conditions: A375 XP, 10μΜ; in %
IGR37 cells (parental) = test: as above; conditions: IGR37 Parental, in %
[6] = test system: 501Mel-XP cells (Vemurafenib-resistant); test: as above; conditions: 501Mel XP, in %
[7] = test system: 501Mel-GP cells (Dabrafenib-resistant); test: as above; conditions: 501Mel GP, in %
[8] = test system: IGR37-GP cells (Dabrafenib-resistant); test: as above; conditions: IGR37 GP, in %
[9] = test system: IGR37-XP cells (Vemurafenib-resistant); test: as above; conditions: IGR37 XP, in %
501Mel cells (parental) = test: as above; conditions: 501Mel Parental, in %
Procedure, shortened: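 Single-point screen at two doses over three days. Parental and BRAF-inhibitor-resistant sublines (XP: Vemurafenib; GP: Dabrafenib) were assessed by PrestoBlue viability, reported relative to untreated cells.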

A375 cells (parental) [10] = test: as above; conditions: A375 Parental, in %

SMILES: Cn1cnc2c(F)c(Nc3ccc(Br)cc3Cl)c(C(=O)NOCCO)cc21 [AZD6244]
Half-maximal inhibitory concentration value (IC50), Mean [1]: n.e.
Half-maximal inhibitory concentration value (IC50), Mean (A375 cells (parental) [2]): n.e.
Half-maximal inhibitory concentration value (IC50), Mean [3]: n.e.

SMILES: C[C@]1(O)C[C@@H](c2nc(-c3ccc4ccc(-c5ccccc5)nc4c3)c3c(N)nccn32)C1 [Linsitinib]
IC50 [1]: 2.08 µM
IC50 (A375 cells (parental) [2]): 4.17 µM
IC50 [3]: 2.94 µM

SMILES: CC(=O)c1c(C)c2cnc(Nc3ccc(N4CCNCC4)cn3)nc2n(C2CCCC2)c1=O [Palbociclib]
IC50 [1]: 2.21 µM
IC50 (A375 cells (parental) [2]): 5.32 µM
IC50 [3]: 4.99 µM

SMILES: COc1cc2nccc(Oc3ccc(NC(=O)C4(C(=O)Nc5ccc(F)cc5)CC4)cc3)c2cc1OC [XL-184 free base (Cabozantinib)]
cell viability (kinase inhibitor library screening) ([4]; 1μΜ): 97.8
cell viability (kinase inhibitor library screening) ([4]; 10μΜ): 41.3
cell viability (kinase inhibitor library screening) [5]: 51.6
cell viability (kinase inhibitor library screening) (IGR37 cells (parental); 1μΜ): 94.2
cell viability (kinase inhibitor library screening) (IGR37 cells (parental); 10μΜ): 42.6
cell viability (kinase inhibitor library screening) ([6]; 1μΜ): 58.9
cell viability (kinase inhibitor library screening) ([6]; 10μΜ): 24.9
cell viability (kinase inhibitor library screening) ([7]; 1μΜ): 76.7
cell viability (kinase inhibitor library screening) ([7]; 10μΜ): 38.8
cell viability (kinase inhibitor library screening) ([8]; 1μΜ): 96.8
cell viability (kinase inhibitor library screening) ([8]; 10μΜ): 14.8
cell viability (kinase inhibitor library screening) ([9]; 1μΜ): 90.6
cell viability (kinase inhibitor library screening) ([9]; 10μΜ): 3.1
cell viability (kinase inhibitor library screening) (501Mel cells (parental); 1μΜ): 90.2
cell viability (kinase inhibitor library screening) (501Mel cells (parental); 10μΜ): 73.6
cell viability (kinase inhibitor library screening) (A375 cells (parental) [10]; 1μΜ): 98.4
cell viability (kinase inhibitor library screening) (A375 cells (parental) [10]; 10μΜ): 40.5

More lines, main results first:

Half-maximal inhibitory concentration value (IC50), Mean [1]: n.e.
Half-maximal inhibitory concentration value (IC50), Mean [3]: n.e.
SMILES: CCN(CCCOc1ccc2c(Nc3cc(CC(=O)Nc4cccc(F)c4)n[nH]3)ncnc2c1)CCOP(=O)(O)O [Barasertib]
Half-maximal inhibitory concentration value (IC50), Mean (A375 cells (parental) [2]): n.e.

IC50 [1]: 0.701 µM
IC50 [3]: 1.71 µM
SMILES: CNC(=O)c1cc(Oc2ccc(NC(=O)Nc3ccc(Cl)c(C(F)(F)F)c3)c(F)c2)ccn1 [Regorafenib]
IC50 (A375 cells (parental) [2]): 2.73 µM
